Experimental data taken from patent EP3394284B1, “ENZYMATIC METHOD FOR THE EVALUATION OF XYLOSE” (Venter Pharma, S.L, priority 2015, dated 2017).

Legend:
XylB-wt2 [1] = molecular target: T1, XylB-wt2 (Caulobacter vibrioides, UniProt B8H1Z0); experiment: Substrate specificity: XylB-wt2 activity with mono- and disaccharides (NADH formation at 340 nm); assay type: biochemical, C. crescentus NA1000
T1 construct: made in house; host or cells: E. coli BL21(DE3)
T1 sequence (B8H1Z0 1-248): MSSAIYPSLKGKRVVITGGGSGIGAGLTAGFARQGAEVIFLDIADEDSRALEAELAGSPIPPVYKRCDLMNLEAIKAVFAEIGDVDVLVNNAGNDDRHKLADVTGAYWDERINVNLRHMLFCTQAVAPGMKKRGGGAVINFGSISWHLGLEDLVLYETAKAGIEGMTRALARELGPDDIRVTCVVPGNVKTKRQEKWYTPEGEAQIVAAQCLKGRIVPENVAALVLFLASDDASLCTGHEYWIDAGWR
Method: Xylose dehydrogenase activity in each CFE was evaluated. XylB catalyzes the oxidation of D-xylose with concomitant reduction of its cofactor NAD^+, to yield NADH. Activity can be determined by measuring the formation of NADH by spectrophotometric monitoring. Variations of absorbance at 340 nm are proportional to consumed D-xylose concentration in the reaction (ε^NADH = 6220 cm^-1M^-1). Activity assays were performed at RT and pH 8.0 (Figure 5). Absorbance at 340 nm (OD) was spectrophotometrically recorded along the time in the presence of each CFE sample containing expressed XylB: wt1, wt2, 6His1 and 6His2. […] Volumes of CFE samples used in the assays are shown in brackets, as well as when the sample has been diluted 10 times (dil 1/10). Slopes are proportional to enzyme activity.
The enzyme XylB-wt2 was characterized to determine if it is possible its application in sensitive and reliable D-xylose detection and quantification. […] In order to confirm the substrate specificity, 9 different sugars (7 monosaccharides and 2 disaccharides) were assayed as XylB-wt substrates. […] XylB-wt2 specific activity measured with different mono and disaccharides.

XylB-wt2 [2] = molecular target: T1, XylB-wt2; experiment: Steady-state kinetic assays of purified XylB-wt2 for substrates and cofactor; assay type: biochemical, C. crescentus NA1000; conditions: for activity as cofactor of XylB-wt2: NAD^+ and NADP^+ both assayed, 'the first one' = NAD^+ (NADP^+ gave no activity)
Method: (§1) Steady-state kinetic assays for XylB activity were measured in triplicate at 25°C in 96-well plates (total volume of 0.3 mL). Measurements of kinetic parameters for D-xylose were performed with purified XylB-wt2 at eight different D-xylose concentrations and with saturating concentration of NAD^+ (0.5 mM). […] Xylose dehydrogenase activity of purified XylB-wt2 was measured at RT and pH 8.0.
(§2) Kinetic parameters of XylB-wt2 for the cofactor NAD^+ were also calculated.
(§3) The calculated homohexameric quaternary structure should be considered when kinetic parameters are calculated.

6His-tagged XylB = molecular target: T2, 6His-tagged XylB (Caulobacter vibrioides, UniProt B8H1Z0); conditions: data taken from Stephens C, 2007; cited from earlier work
T2 construct: 6His
T2 sequence (B8H1Z0 1-248): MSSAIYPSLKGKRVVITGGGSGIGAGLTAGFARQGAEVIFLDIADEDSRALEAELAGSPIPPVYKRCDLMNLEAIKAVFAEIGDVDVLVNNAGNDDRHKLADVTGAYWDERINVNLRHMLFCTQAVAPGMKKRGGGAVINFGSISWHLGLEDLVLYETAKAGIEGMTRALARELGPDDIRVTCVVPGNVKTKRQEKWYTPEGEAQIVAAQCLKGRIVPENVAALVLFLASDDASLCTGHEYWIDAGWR

Strep-TEV-XylB = molecular target: T3, Strep-TEV-XylB (Caulobacter vibrioides, UniProt B8H1Z0); conditions: data taken from Toivari M, 2012a; pH 9.0; cited from earlier work
T3 construct: Strep tag; TEV cleavage site
T3 sequence (B8H1Z0 1-248): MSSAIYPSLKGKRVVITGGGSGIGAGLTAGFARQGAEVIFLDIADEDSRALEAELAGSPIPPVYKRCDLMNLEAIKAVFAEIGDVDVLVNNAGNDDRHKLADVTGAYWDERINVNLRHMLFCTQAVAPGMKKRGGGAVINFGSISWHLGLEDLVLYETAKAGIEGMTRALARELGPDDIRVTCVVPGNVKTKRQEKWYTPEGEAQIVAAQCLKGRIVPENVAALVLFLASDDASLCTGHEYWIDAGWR

[3] = substrate: NC(=O)c1ccc[n+]([C@@H]2O[C@H](COP(=O)([O-])OP(=O)(O)OC[C@H]3O[C@@H](n4cnc5c(N)ncnc54)[C@H](O)[C@@H]3O)[C@@H](O)[C@H]2O)c1; experiment: Steady-state kinetic assays of purified XylB-wt2 for substrates and cofactor; assay type: biochemical, C. crescentus NA1000; conditions: other: 25°C, pH 8.0, sugars with NAD^+ 0.5 mM, NAD^+ with D-xylose 5 mM
Method: as §1, §2, §3

[4] = sugar concentration 100 mM, relative to D-xylose at 5 mM
[5] = considering the enzyme as a homohexameric protein
[6] = 25°C, pH 8.0, sugars with NAD^+ 0.5 mM, NAD^+ with D-xylose 5 mM, enzyme assumed monomer
[7] = sugar concentration 5 mM, relative to D-xylose

## D-Ribose
XylB-wt2 [1]; sugar concentration 100 mM
  Specific Activity (U/mg): 4.4 U/mg
XylB-wt2 [1]; [4]
  Relative Activity (%): 15%

## OC[C@H]1O[C@H](O[C@H]2[C@H](O)[C@@H](O)C(O)O[C@@H]2CO)[C@H](O)[C@@H](O)[C@@H]1O (mixture of isomers) [Maltose]
XylB-wt2 [1]; sugar concentration 100 mM
  Specific Activity (U/mg): 0.0 U/mg
XylB-wt2 [1]; [4]
  Relative Activity (%): 0%

## NC(=O)c1ccc[n+]([C@@H]2O[C@H](COP(=O)([O-])OP(=O)(O)OC[C@H]3O[C@@H](n4cnc5c(N)ncnc54)[C@H](O)[C@@H]3O)[C@@H](O)[C@H]2O)c1 [NAD^+]
XylB-wt2 [2]
  activity as cofactor of XylB-wt2: only displayed activity with the first one
XylB-wt2 [2]; [5]
  Vmax (U·mg^-1): 30.1 ±1.0 U·mg^-1
6His-tagged XylB
  Vmax (U·mg^-1): 20.5 U·mg^-1
Strep-TEV-XylB
  Km: 460 ± 50 µM
  kcat: 31 ± 1.08 s⁻¹

## D-Glucose
XylB-wt2 [2]; [6]
  Vmax (U·mg^-1): 10.7 ±0.1 U·mg^-1
  kcat: 4.78 ± 0.833 s⁻¹
XylB-wt2 [2]; [5]
  Vmax (U·mg^-1): 10.7 ±0.1 U·mg^-1
XylB-wt2 [1]; sugar concentration 100 mM
  Specific Activity (U/mg): 3.9 U/mg
XylB-wt2 [1]; [4]
  Relative Activity (%): 13%

## O=C(CO)[C@@H](O)[C@H](O)[C@H](O)CO [D-Fructose]
XylB-wt2 [1]; sugar concentration 100 mM
  Specific Activity (U/mg): 0.0 U/mg
XylB-wt2 [1]; [4]
  Relative Activity (%): 0%

## D-Galactose
XylB-wt2 [1]; sugar concentration 100 mM
  Specific Activity (U/mg): 0.5 U/mg
XylB-wt2 [1]; [4]
  Relative Activity (%): 2%

## L-Arabinose
XylB-wt2 [1]; sugar concentration 5 mM
  Specific Activity (U/mg): 4.8 U/mg
XylB-wt2 [1]; [7]
  Relative Activity (%): 16%

## D-Mannose
XylB-wt2 [1]; sugar concentration 100 mM
  Specific Activity (U/mg): 0.0 U/mg
XylB-wt2 [1]; [4]
  Relative Activity (%): 0%

## 4-O-β-galactopyranosyl-D-xylose [Gaxilose]
XylB-wt2 [1]; sugar concentration 100 mM
  Specific Activity (U/mg): 0.7 U/mg
XylB-wt2 [1]; [4]
  Relative Activity (%): 2%

## D-Xylose
XylB-wt2 [2]; 25°C, pH 8.0, sugars with NAD^+ 0.5 mM, NAD^+ with D-xylose 5 mM
  Km: 41 ± 5 µM
XylB-wt2 [2]; [6]
  Vmax (U·mg^-1): 30.2 ±1.0 U·mg^-1
  kcat: 13.5 ± 0.583 s⁻¹
XylB-wt2 [2]; XylB-wt2, pH 8.0
  catalytic efficiencies (kcat/KM) ratio D-xylose/ D-glucose: 15000
XylB-wt2 [2]; [5]
  Km: 41 ± 5 µM
  Vmax (U·mg^-1): 30.2 ±1.0 U·mg^-1
XylB-wt2 [1]; sugar concentration 5 mM
  Specific Activity (U/mg): 30.0 U/mg
XylB-wt2 [1]; [7]
  Relative Activity (%): 100%
6His-tagged XylB
  Km: 760 µM
  Vmax (U·mg^-1): 27.5 U·mg^-1
Strep-TEV-XylB
  Km: 80 ± 20 µM
  kcat: 22.67 ± 1.08 s⁻¹

## NC(=O)c1ccc[n+]([C@@H]2O[C@H](COP(=O)([O-])OP(=O)(O)OC[C@H]3O[C@@H](n4cnc5c(N)ncnc54)[C@H](OP(=O)(O)O)[C@@H]3O)[C@@H](O)[C@H]2O)c1 [NADP^+]
XylB-wt2 [2]
  activity as cofactor of XylB-wt2: only displayed activity with the first one

B1: XylB-wt2 (Caulobacter vibrioides NA1000) (protein)
chain: MSSAIYPSLKGKRVVITGGGSGIGAGLTAGFARQGAEVIFLDIADEDSRALEAELAGSPIPPVYKRCDLMNLEAIKAVFAEIGDVDVLVNNAGNDDRHKLADVTGAYWDERINVNLRHMLFCTQAVAPGMKKRGGGAVINFGSISWHLGLEDLVLYETAKAGIEGMTRALARELGPDDIRVTCVVPGNVKTKRQEKWYTPEGEAQIVAAQCLKGRIVPENVAALVLFLASDDASLCTGHEYWIDAGWR
notes: made in house; host or cells: E. coli BL21(DE3)
[3]
  Km: 78 ± 10 µM
  Vmax: 30.1 ±1.0 U·mg^-1
  kcat: 13.5 ± 1.08 s⁻¹
  kcat/Km: 173080 M⁻¹ s⁻¹
